# Reference: US20090317419A1, “Tetramers” (Duke University, priority 2008, published 2009)
# Values joined by “and” are separate entries in the source; they are usually repeats but may differ in a detail not shown here. Equal values may be shown once. Read-outs that look alike come from different tables or passages of the source. Ends that are not written are not given here. * marks the point of attachment. Biotin = O=C1N[C@H]2[C@H](CS[C@H]2CCCCC(=O)*)N1
# Tests used:
# [1] = target: gp41 ID tetramer; experiment: SPR, captured mAb, tetramer injected
# gp41 ID tetramer, sequence (P22629 37-163 limits assumed): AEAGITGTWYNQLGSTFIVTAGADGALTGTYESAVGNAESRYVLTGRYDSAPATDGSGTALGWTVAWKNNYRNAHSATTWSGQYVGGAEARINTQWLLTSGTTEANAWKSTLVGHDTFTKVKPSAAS
# [2] = tested on: 13H11 mAb; experiment: Binding of alanine substituted gp41 MPER tetramers to 13H11 (antibody-coated beads and SPR); design: species or system mouse; conditions: flow cytometry on antibody-coated beads and SPR
# Description: (§1) Data were analyzed using FlowJo (Tree Star, Ashland, Oreg.).
# (§2) Development of gp41 MPER tetramers specific for neutralizing vs. non-neutralizing antibodies. […] Therefore, the next question asked was whether gp41 MPER tetramers could be made that preferentially react with either of these two prototype antibodies that would make it possible to discriminate between neutralizing 2F5-like gp41 MPER antibodies and non-neutralizing 13H11-like MPER antibodies. To address this issue, a series of gp41 MPER tetramers were made with alanine substitutions along the primary sequence (see Table 8) and assayed for the binding of 13H11 or 2F5 by flow cytometry on antibody-coated beads and by SPR (FIGS. 6C and 6D). […] Thus, tetramers made with the A13 or A15 mutant will bind B cells only with surface Ig similar to the non-neutralizing 13H11 antibody while tetramers made with the A14, A18, or A20 mutants will bind B cells only with surface Ig with specificities similar to the neutralizing 2F5 antibody.
# [3] = tested on: 7B2 cells; conditions: flow cytometry
# Description: (§3) Use of antibody-coated beads and cell lines for tetramer quality control. Tetramer stocks were diluted to twice the desired final concentration in PBS containing 1% BSA. An equal volume of beads or cells at 5×10^5 up to 2×10^6 per sample were mixed with tetramer and incubated (4° C.×30 min). Beads or cells were washed with PBS+1% BSA before being fixed in 2% methanol-free formaldehyde (Polysciences, Inc, Warrington, Pa.) in PBS. Samples were stored at 4° C. prior to being analyzed by flow cytometry (BD LSR II, Becton Dickinson, Mountain View, Calif.). Data were analyzed using FlowJo (Tree Star, Ashland, Oreg.). For tetramer titration 40-80 ng tetramer per 10^6 cells/beads was serially diluted over 8-12 points. Optimal concentrations determined by this method were used for subsequent experiments. For cold competition experiments the incubation step was performed by staining with 10-fold excess unlabeled tetramer (4° C.×30 min) prior to the addition of APC-labeled tetramer. For cell dilution experiments, a mixture of mAb cell lines was made and then 1:10 serial dilutions of cells prepared. For cross competition experiments, mixtures of cells were prepared and then stained singly with anti-IgG reagents or tetramer, or the cells were doubly stained with both reagents either sequentially or concurrently.
# [4] = tested on: mAb 7B2 on beads; conditions: flow cytometry
# Description: (§4) Antibody-coated beads. Carboxyl-polystyrene beads (3.0-3.4 μm) (Spherotech, Inc., Lake Forest, Ill.) were resuspended in 0.01 M sodium acetate buffer (pH 5.0) and reacted (20° C.×1 hr) with 1-ethyl-3-(3-dimethylaminopropyl) carbodiimide hydrochloride (EDC) (Sigma-Aldrich, Co., St. Louis, Mo.) at a ratio of 3.1 mg beads to 1 mg EDC. Beads were washed with sodium acetate buffer, resuspended in a minimal volume before adding purified mAb in the same buffer (ratio of 16 mg beads to 1 mg mAb), incubated (20° C.×2 hrs), then washed with sodium acetate buffer. Beads were resuspended at 5% in PBS containing 1% bovine serum albumin and 0.02% sodium azide.
# as §3
# [5] = tested on: mAb 7B2 (anti-gp41 immunodominant region); conditions: SPR, mAb 7B2 captured
# Description: (§5) Surface Plasmon Resonance (SPR) measurements of tetramer binding to peptide epitopes. Tetramer binding assays were carried out on a BIAcore 3000 (BIAcore/GE Healthcare, Piscataway, N.J.) instrument using mAbs against each specific B cell epitope.
# (§6) Each mAb (about 1000 RU) was first captured on anti-human Fc mAb (Pierce, Rockford, Ill.) immobilized on a CM5 sensor chip. Approximately 3000 RU of anti-human Fc mAb was covalently coupled to each flow cell of the sensor chip as described before (Alam et al, Journal of Immunology 178:4424-4435 (2007)). Each B cell tetramer was injected over its epitope specific mAb or a control surface immobilized with irrelevant mAb. For each tetramer binding curve, non-specific binding signals obtained from the control surface were subtracted. The binding assay was monitored at 25° C. and using PBS, pH 7.4, as the running buffer. The BIAevaluation 3.0 software (BIAcore/GE Healthcare, Piscataway, N.J.) was used for SPR binding data analyses.
# [6] = target: 62.19 V3 tetramer; experiment: SPR, captured mAb, tetramer injected
# 62.19 V3 tetramer, sequence (P22629 37-163 limits assumed): as above
# [7] = target: B.con03 V3 tetramer; experiment: SPR, captured mAb, tetramer injected
# B.con03 V3 tetramer, sequence (P22629 37-163 limits assumed): as above
# [8] = target: 62.19 V3 tetramer
# [9] = target: gp41 MPER tetramer; experiment: SPR, captured mAb, tetramer injected
# gp41 MPER tetramer, sequence (P22629 37-163 limits assumed): as above
# [10] = target: gp41 MPER tetramer; experiment: flow cytometry, gp41 MPER tetramer on the 15% 13H11 / 85% F39F cell mixture diluted tenfold with F39F cells (FIG. 4C); the value follows the mixing ratio
# [11] = target: gp41 MPER tetramer; experiment: flow cytometry, gp41 MPER tetramer on the 13H11 / F39F cell mixture diluted a hundredfold in all with F39F cells (FIG. 4D); the value follows the mixing ratio
# [12] = target: gp41 MPER tetramer; experiment: flow cytometry, gp41 MPER tetramer on a mixture of 15% 13H11 hybridoma cells and 85% F39F cells (FIG. 4B); the value follows the mixing ratio
# [13] = tested on: F39F cells; conditions: flow cytometry
# Description: as §3
# [14] = tested on: mAb F39F (anti-gp120 V3); conditions: SPR, mAb F39F captured, 25° C., PBS pH 7.4
# Description: as §5, §6
# [15] = tested on: V3 loop mAbs 7B9 and F39F on beads; conditions: flow cytometry
# Description: as §4, §3
# [16] = tested on: 2F5 mAb; experiment: Binding of alanine substituted gp41 MPER tetramers to 2F5 (antibody-coated beads and SPR); design: species or system human; conditions: flow cytometry on antibody-coated beads and SPR
# Description: as §1, §2
# [17] = tested on: total naïve splenic BALB/c B cells; conditions: APC-labeled tetramer
# Description: (§7) Cell isolation, serum collection, and PBMC isolations. Heparinized or non-heparanized blood was collected sub-mandibularly 10 days after immunizations. For preparation of peripheral blood lymphocytes for B cell tetramer analysis, PBMC were isolated from blood collected in heparinized tubes (0.2 ml) using Lympholyte M (Cederlane). For Luminex and ELISA assays, sera was isolated from non-heparanized blood and stored at −20° C. until use. Spleen, bone marrow (BM), and peritoneal cavity (PerC) cells were also collected. For most immunizations, tissues were harvested after the 4th boost, except for kinetic studies, in which tissues from mice were harvested after 1, 3 or 7 days after a single immunization. For BM preparations, femora and tibiae were removed, aspirated with tissue medium using 23 gauge needles, filtered with 70 μm cell strainers (BD labware), and RBC-depleted using Tris-buffered ammonium chloride lysis. For splenocyte preparation, spleens were harvested and dissociated into single-cell suspensions either by passage through 70 μm cell strainers in tissue medium or by using frosted glass slides, and blood erythrocytes were depleted with ammonium chloride lysis. For isolation of peritoneal cells, peritoneal cavities of sacrificed mice were lavaged by injection with 10 ml of PBS, followed by gentle massage of the abdomen, and withdrawal of the peritoneal exudates. BM, splenic, and peritoneal single cell suspensions were centrifuged at 1500 rpm for 5 min and resuspended in 5, 10, and 1 ml of tissue media, respectively, for cell counts and immunofluorescence staining. Cell counts were performed in duplicate on a Coulter ZI Dual Threshold Cell Counter (Coulter).
# (§8) Antibodies and flow cytometry. Immunofluorescent staining of single cell suspensions (≧2×10^6) was conducted using pre-mixed combinations of fluorochrome-labeled antibodies and APC-conjugated B cell tetramers at empirically-determined optimal concentrations. All antibodies were from BD unless otherwise stated. […] Other reagents included biotinylated antibodies against dump channel markers: Thy1 (Ox7; Abcam), F4/80 (BM8; Abcam), CD11c (clone HL3), Gr-1 (clone RB6-8C5), TER-119, and NK-1.1 (clone PK136), secondary staining SA-Texas Red conjugate; v-amine live/dead violet dye (Molecular Probes), and Fc block (anti-CD16/32; clone 2.4G2).
# (§9) Staining was conducted at 4° C. in several sequential steps in FACS staining buffer (1×PBS with 2% FCS, 0.1% NaN3), washing twice between steps. First, cells were incubated with v-amine live/dead dye for 15 min. Next, cells were stained with APC-labeled tetramers for 30 min. Where applicable, this was preceded by addition of cold tetramer at 10 fold molar excess for 1 h. Finally, cells were stained with Fc block for 30 min, followed by incubation with combinations of primary antibody cocktails for 30 min, and secondary staining with SA-Texas Red for 30 min.
# (§10) Data were acquired using an LSRII flow cytometer and Cell Quest software (BD Immunocytometry systems). A minimum of 250000 events were acquired per sample. FACS Analysis was performed using FlowJo software (Tree Star). For analysis, single cells were positively gated based on their forward scatter height vs. forward scatter area and side scatter height vs. side scatter area profiles, lymphocytes were then positively gated based on their forward and side scatter profile (live lymphocyte gate), residual dead cells were excluded with negative gating on v-amine live/dead dye, and all irrelevant non-B cells were excluded with negative gating on dump markers Thy1, F4/80, CD11c, Gr-1, TER-119, and NK-1.1.
# [18] = tested on: B cell subsets from naive C57BL/6 mice
# Description: as §7, §8, §9, §10
# To examine if gp41 2F5 MPER epitope reactivity across B cell subsets mapped similarly on the IgH^b allotype, reactivity to gp41 2F5 MPER tetramers was measured by measuring the percentage of APC-labeled gp41 2F5 MPER tetramer-reactive cells in C57BL/6 bone marrow, splenic, and peritoneal B cell subsets (Table 10).
substance,measurement,setting,value
7B2 (antibody),koff,[1],0.0011 s⁻¹
same,kon,[1],1200 M⁻¹ s⁻¹
"QQEKNEQELLELDKWASLWA (QQEKNEQELLELDKWASLWA; also: tetramer with streptavidin) [A20, alanine substituted gp41 MPER tetramer]",binding to non-neutralizing mAb 13H11,[2],significantly reduced or eliminated binding
Biotin-GGGQLDSIQKEVYQLGRQLVWCTARLATKLVGKACGIL (cysteine pairing not given here) [gp41 ID scrambled tetramer],binding to mAb cell line,[3],higher background
same,binding to antibody-coated beads,[4],higher background
Biotin-GGGKQLQARVLAVERYLKDQQLLGIWGCSGKLICTTAV (cysteine pairing not given here) [gp41 ID tetramer],binding to mAb cell line,[3],bound
same,koff,[5],1.1 s^−1 × 10^−3
same,kon,[5],1.2 M^−1s^−1 × 10^3
same,binding to antibody-coated beads,[4],bound only to mAb 7B2
"QQEKNEQELLELDKWASAWN (Biotin-GGGQQEKNEQELLELDKWASAWN; also: tetramer with streptavidin) [A18, alanine substituted gp41 MPER tetramer]",binding to non-neutralizing mAb 13H11,[2],significantly reduced or eliminated binding
F39F (antibody),koff,[6],0.0006 s⁻¹
same,kon,[6],60500 M⁻¹ s⁻¹
same,koff,[7],0.00065 s⁻¹
same,kon,[7],83400 M⁻¹ s⁻¹
same,% of cells in the tetramer-positive quadrant,[8],6%
same,% of cells positive for both tetramer and anti-IgG,[8],6.34% and 6.22% and 6.05%
13H11 (antibody),koff,[9],0.0081 s⁻¹
same,kon,[9],206000 M⁻¹ s⁻¹
same,percent of cells of the mixture stained with the tetramer,[10],1.47%
same,percent of cells of the mixture stained with the tetramer over background,[11],0.12%
same,percent of cells of the mixture stained with the tetramer,[12],15.1%
"QQEKNEQELLELDAWASLWN (QQEKNEQELLELDAWASLWN; also: tetramer with streptavidin) [A14, alanine substituted gp41 MPER tetramer]",binding to non-neutralizing mAb 13H11,[2],significantly reduced or eliminated binding
Biotin-GGGTRPNNNTRKSIHIGPGRAFYTTGEIIGDIRQAH [B.con03 V3 tetramer],binding to mAb cell line,[13],bound
same,koff,[14],0.65 s^−1 × 10^−3
same,kon,[14],83.4 M^−1s^−1 × 10^3
same,binding to antibody-coated beads,[15],bound to both V3 loop mAbs 7B9 and F39F
"QQEKNEQELLELDKAASLWN (QQEKNEQELLELDKAASLWN; also: tetramer with streptavidin) [A15, alanine substituted gp41 MPER tetramer]",binding to 2F5 mAb,[16],eliminated binding
2F5 (antibody),koff,[9],0.00037 s⁻¹
same,kon,[9],174000 M⁻¹ s⁻¹
"QQEKNEQELLELAKWASLWN (QQEKNEQELLELAKWASLWN; also: tetramer with streptavidin) [A13, alanine substituted gp41 MPER tetramer]",binding to 2F5 mAb,[16],eliminated binding
Biotin-GGGNKEQDQAEESLQLWEKLNWL [gp41 MPER scrambled tetramer],binding to total naïve splenic B cells,[17],Negligible binding
same,% of subset binding tetramer ± SEM,"[18]; C57BL/6, Bone marrow, Immature",0.10 ± 0.02%
same,% of subset binding tetramer ± SEM,"[18]; C57BL/6, Bone marrow, MF",0.09 ± 0.02%
same,% of subset binding tetramer ± SEM,"[18]; C57BL/6, Bone marrow, Pro/pre",0.06 ± 0.01%
same,% of subset binding tetramer ± SEM,"[18]; C57BL/6, Bone marrow, T1",0.12 ± 0.02%
same,% of subset binding tetramer ± SEM,"[18]; C57BL/6, Bone marrow, T2",0.11 ± 0.01%
same,% of subset binding tetramer ± SEM,"[18]; C57BL/6, Peritoneum, B1a",0.14 ± 0.03%
same,% of subset binding tetramer ± SEM,"[18]; C57BL/6, Peritoneum, B1b",0.13 ± 0.02%
same,% of subset binding tetramer ± SEM,"[18]; C57BL/6, Peritoneum, B2",0.15 ± 0.03%
same,% of subset binding tetramer ± SEM,"[18]; C57BL/6, Spleen, MF",0.11 ± 0.02%
same,% of subset binding tetramer ± SEM,"[18]; C57BL/6, Spleen, MZ",0.09 ± 0.01%
same,% of subset binding tetramer ± SEM,"[18]; C57BL/6, Spleen, T1",0.08 ± 0.01%
same,% of subset binding tetramer ± SEM,"[18]; C57BL/6, Spleen, T2",0.10 ± 0.02%
